In ChEMBL document CHEMBL4480391, “Discovery and synthesis of sulfur-containing 6-substituted 5,8-dimethoxy-1,4-naphthoquinone oxime derivatives as new and potential anti-MDR cancer agents” (Eur J Med Chem, 2019):

Experiments:
K562 = assay: Cytotoxicity against human K562 cells after 72 hrs by MTT assay; format: functional, cell-based; conditions: K562, 72 h
[1] = Selectivity index, ratio of IC50 for human HSF cells to IC50 for human HCT15 cells; format: toxicity; conditions: HSF cells versus HCT15 cells, read-out: Ratio IC50
HCT-15 = assay: Cytotoxicity against human HCT15 cells after 72 hrs by MTT assay; format: functional, cell-based; conditions: HCT-15, 72 h
MGC-803 = assay: Cytotoxicity against human MGC803 cells after 72 hrs by MTT assay; format: functional, cell-based; conditions: MGC-803, 72 h
[2] = Cytotoxicity against human HSF cells after 72 hrs by MTT assay; format: cell-based
NCI/ADR-RES = assay: Cytotoxicity against human MCF7/ADR cells after 72 hrs by MTT assay; format: functional, cell-based
[3] = Cytotoxicity against human […] cells after 72 hrs by MTT assay; format: functional, cell-based
A549 = assay: Cytotoxicity against human A549 cells after 72 hrs by MTT assay; format: functional, cell-based; conditions: A549, 72 h
[4] = Selectivity ratio of IC50 for human MCF7 cells to IC50 for human MCF7/ADR cells; format: functional
A549/TR = assay: Cytotoxicity against human A549/TAX cells after 72 hrs by MTT assay; format: functional, cell-based
Bel7402/5-FU = assay: Cytotoxicity against human Bel7402/5-FU cells after 72 hrs by MTT assay; format: functional, cell-based
MCF7 = assay: Cytotoxicity against human MCF7 cells after 72 hrs by MTT assay; format: functional, cell-based; conditions: MCF7, 72 h
[5] = Selectivity ratio of IC50 for human A549 cells to IC50 for human A549/TAX cells; format: functional
[6] = Selectivity ratio of IC50 for human […] cells to IC50 for human Bel7402/5-FU cells; format: functional

Compound | IC50 (K562) | selectivity ratio [1] | IC50 (HCT-15) | IC50 (MGC-803) | IC50 [2] | IC50 (NCI/ADR-RES) | IC50 [3] | IC50 (A549) | Ratio IC50 [4] | IC50 (A549/TR) | IC50 (Bel7402/5-FU) | IC50 (MCF7) | Ratio IC50 [5] | Ratio IC50 [6]
CCCCCCC(SCCC(C)C)c1cc(OC)c2c(c1OC)/C(=N/O)C=C/C2=N\O (stereo not drawn) | 1.28 µM | > 48.1 | 1.04 µM | 1.9 µM | > 50 µM |  |  |  |  |  |  |  |  | 
CCCCCCCCCCSC(CCCCCCCCCC)c1cc(OC)c2c(c1OC)/C(=N/O)C=C/C2=N\O (stereo not drawn) | 40.3 µM | > 1.42 | 35.2 µM | > 50 µM | > 50 µM |  |  |  |  |  |  |  |  | 
CCCCCCCCC(SC(=O)c1ccco1)c1cc(OC)c2c(c1OC)/C(=N/O)C=C/C2=N\O (stereo not drawn) | 1.38 µM | > 20.7 | 2.42 µM | 5.26 µM | > 50 µM |  |  |  |  |  |  |  |  | 
CCCCCCCCCCCCC(SCCC(C)C)c1cc(OC)c2c(c1OC)/C(=N/O)C=C/C2=N\O (stereo not drawn) | 10.1 µM | > 3.86 | 13 µM | 17.4 µM | > 50 µM |  |  |  |  |  |  |  |  | 
CC(=O)O[C@H]1C(=O)[C@@]2(C)[C@H]([C@H](OC(=O)c3ccccc3)[C@]3(O)C[C@H](OC(=O)[C@H](O)[C@@H](NC(=O)c4ccccc4)c4ccccc4)C(C)=C1C3(C)C)[C@]1(OC(C)=O)CO[C@@H]1C[C@@H]2O [PACLITAXEL] |  |  |  |  |  | 17.7 µM | 0.65 µM | 0.54 µM | 0.03 | 24.5 µM | 10.5 µM | 0.47 µM | 0.02 | 0.06
O=c1[nH]cc(F)c(=O)[nH]1 [FLUOROURACIL] | 12.2 µM | > 6.64 |  | > 50 µM | > 50 µM | 513 µM | 22.9 µM | 28.6 µM | 0.05 | 112 µM | 936 µM | 26.6 µM | 0.26 | 0.02
CCCCC(SCCC(C)C)c1cc(OC)c2c(c1OC)/C(=N/O)C=C/C2=N\O (stereo not drawn) | 2.03 µM | > 17.1 | 2.92 µM | 5.96 µM | > 50 µM |  |  |  |  |  |  |  |  | 
CCCCCCCCC(SC(=O)c1cccs1)c1cc(OC)c2c(c1OC)/C(=N/O)C=C/C2=N\O (stereo not drawn) | 0.95 µM | > 41 | 1.22 µM | 3.71 µM | > 50 µM |  |  |  |  |  |  |  |  | 
CCC(SC(=O)c1cc(OC)c(OC)c(OC)c1)c1cc(OC)c2c(c1OC)/C(=N/O)C=C/C2=N\O (stereo not drawn) | 14.4 µM | > 18.2 | 12.5 µM | 30.3 µM | > 50 µM |  |  |  |  |  |  |  |  | 
CC(C)=CC[C@@H](O)C1=CC(=O)c2c(O)ccc(O)c2C1=O [SHIKONIN] | 1.02 µM | 1.45 |  |  | 1.25 µM |  |  |  |  |  |  |  |  | 
CCCCCCCCCCC(SCCCCC)c1cc(OC)c2c(c1OC)/C(=N/O)C=C/C2=N\O (stereo not drawn) | 7.21 µM | > 7.89 | 6.34 µM | 12.1 µM | > 50 µM |  |  |  |  |  |  |  |  | 
CCCCCCCCCCCCCCC(SC(=O)c1cc(OC)c(OC)c(OC)c1)c1cc(OC)c2c(c1OC)/C(=N/O)C=C/C2=N\O (stereo not drawn) | 5.83 µM | > 6.27 | 7.98 µM | 9.68 µM | > 50 µM |  |  |  |  |  |  |  |  | 
CCCCCCC(c1cc(OC)c2c(c1OC)/C(=N/O)C=C/C2=N\O)S(=O)(=O)CCC(C)C (stereo not drawn) | 4.25 µM | > 6.82 | 7.33 µM | 15.7 µM | > 50 µM |  |  |  |  |  |  |  |  | 
CCCCCCCCC(c1cc(OC)c2c(c1OC)/C(=N/O)C=C/C2=N\O)S(=O)(=O)CCC(C)C (stereo not drawn) | 1.29 µM | > 12.6 | 3.89 µM | 7.82 µM | > 50 µM |  |  |  |  |  |  |  |  | 
CCCCCCCCCCCCCCC(c1cc(OC)c2c(c1OC)/C(=N/O)C=C/C2=N\O)S(=O)(=O)CCC(C)C (stereo not drawn) | 1.56 µM | > 7.44 | 2.74 µM | 3.53 µM | > 50 µM |  |  |  |  |  |  |  |  | 
COc1cccc2c1C(=O)c1c(O)c3c(c(O)c1C2=O)C[C@@](O)(C(=O)CO)C[C@@H]3O[C@H]1C[C@H](N)[C@H](O)[C@H](C)O1.Cl [DOXORUBICIN HYDROCHLORIDE] |  |  |  |  |  | 39.5 µM | 1.32 µM |  | 0.01 | 42.6 µM | 11 µM | 0.42 µM | 0.04 | 0.12
CCCCCCCCCCCCCCC(SCCC(C)C)c1cc(OC)c2c(c1OC)/C(=N/O)C=C/C2=N\O (stereo not drawn) | 25.7 µM | > 2.22 | 22.5 µM | 38.2 µM | > 50 µM |  |  |  |  |  |  |  |  | 
CCCCCCC(SC(=O)c1cc(OC)c(OC)c(OC)c1)c1cc(OC)c2c(c1OC)/C(=N/O)C=C/C2=N\O (stereo not drawn) | 1.52 µM | > 22.6 | 2.21 µM | 4.92 µM | > 50 µM |  |  |  |  |  |  |  |  | 
CCCCCCCCCCC(SCCCCCC)c1cc(OC)c2c(c1OC)/C(=N/O)C=C/C2=N\O (stereo not drawn) | 10.8 µM | > 4.86 | 10.3 µM | 18.5 µM | > 50 µM |  |  |  |  |  |  |  |  | 
CCCCCCCCCCCCC(SC(=O)c1cc(OC)c(OC)c(OC)c1)c1cc(OC)c2c(c1OC)/C(=N/O)C=C/C2=N\O (stereo not drawn) | 4.41 µM | > 7.85 | 5.42 µM | 7.59 µM | > 50 µM |  |  |  |  |  |  |  |  | 
CCCCCCCCCCC(SC(=O)c1cc(OC)c(OC)c(OC)c1)c1cc(OC)c2c(c1OC)/C(=N/O)C=C/C2=N\O (stereo not drawn) | 1.96 µM | > 36 | 1.39 µM | 4.66 µM | > 50 µM |  |  |  |  |  |  |  |  | 
CCCCCCCCCCC(SCCC(C)C)c1cc(OC)c2c(c1OC)/C(=N/O)C=C/C2=N\O (stereo not drawn) | 5.49 µM | > 10.5 | 4.75 µM | 8.91 µM | > 50 µM |  |  |  |  |  |  |  |  | 
CCCCC(SC(=O)c1cc(OC)c(OC)c(OC)c1)c1cc(OC)c2c(c1OC)/C(=N/O)C=C/C2=N\O (stereo not drawn) | 6.35 µM | > 6.47 | 7.73 µM | 14.7 µM | > 50 µM |  |  |  |  |  |  |  |  | 
CCCCCCCCC(SCCCCCC)c1cc(OC)c2c(c1OC)/C(=N/O)C=C/C2=N\O (stereo not drawn) | 1.14 µM | > 46.3 | 1.08 µM | 1.91 µM | > 50 µM |  |  |  |  |  |  |  |  | 
CCCCCCCCC(SC(=O)c1ccc(C(F)(F)F)cc1)c1cc(OC)c2c(c1OC)/C(=N/O)C=C/C2=N\O (stereo not drawn) | 4.45 µM | > 13.1 | 3.82 µM | 6.34 µM | > 50 µM |  |  |  |  |  |  |  |  | 
CCCCCCCCC(SCC)c1cc(OC)c2c(c1OC)/C(=N/O)C=C/C2=N\O (stereo not drawn) | 2.71 µM | > 21.6 | 2.32 µM | 4.39 µM | > 50 µM |  |  |  |  |  |  |  |  | 
CCCCCCCCCCC(SCC)c1cc(OC)c2c(c1OC)/C(=N/O)C=C/C2=N\O (stereo not drawn) | 1.05 µM | > 56.2 | 0.89 µM | 1.87 µM | > 50 µM |  |  |  |  |  |  |  |  | 
CCC(SCCC(C)C)c1cc(OC)c2c(c1OC)/C(=N/O)C=C/C2=N\O (stereo not drawn) | 3.28 µM | > 22.4 | 5.23 µM | 10.4 µM | > 50 µM |  |  |  |  |  |  |  |  | 
CCCCCCCCCC(SCCC(C)C)c1cc(OC)c2c(c1OC)/C(=N/O)C=C/C2=N\O (stereo not drawn) | 0.98 µM | > 54.3 | 0.92 µM | 1.54 µM | > 50 µM |  |  |  |  |  |  |  |  | 
